Structures can show the parent of a compound that is named as a salt.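 Grown in 96-well plates, cells were treated for 48 hours with each compound at five concentrations. Insufficient inhibition: endpoint recorded as highest concentration tested. Here, GI50 denotes the concentration required for 50% inhibition of growth.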 Calls of active or inactive are those of the source. No stated cut-off is given here; in the data, active = GI50 up to about 1.1 µM and inactive = higher.
Experiments:
Test in all cases: NCI-60 cell line screen, 48 h
RPMI-8226 = tested on: RPMI-8226
CCRF-CEM = tested on: CCRF-CEM
PC-3 = tested on: PC-3
UACC-257 = tested on: UACC-257
OVCAR-5 = tested on: OVCAR-5
K562 = tested on: K562
MOLT-4 = tested on: MOLT-4
MDA-MB-435 = tested on: MDA-MB-435
U-251 = tested on: U-251
SF-295 = tested on: SF-295
BT-549 = tested on: BT-549
UACC-62 = tested on: UACC-62
UO-31 = tested on: UO-31
LOX IMVI = tested on: LOX IMVI
NCI-H460 = tested on: NCI-H460
Hs-578T = tested on: Hs-578T
NCI-H23 = tested on: NCI-H23
SR = tested on: SR
NCI-H226 = tested on: NCI-H226
NCI/ADR-RES = tested on: NCI/ADR-RES
HOP-92 = tested on: HOP-92
TK-10 = tested on: TK-10
A549 = tested on: A549
HCC 2998 = tested on: HCC 2998
MCF7 = tested on: MCF7
OVCAR-8 = tested on: OVCAR-8
HT-29 = tested on: HT-29
SK-MEL-28 = tested on: SK-MEL-28
SN12C = tested on: SN12C
CAKI-1 = tested on: CAKI-1
786-0 = tested on: 786-0
SF-268 = tested on: SF-268
Malme-3M = tested on: Malme-3M
M14 = tested on: M14
KM12 = tested on: KM12
OVCAR-3 = tested on: OVCAR-3
HOP-62 = tested on: HOP-62
DU-145 = tested on: DU-145
SF-539 = tested on: SF-539
MDA-MB-231 = tested on: MDA-MB-231
SK-OV-3 = tested on: SK-OV-3
SNB-19 = tested on: SNB-19
EKVX = tested on: EKVX
HCT-116 = tested on: HCT-116
MDA-N = tested on: MDA-N
HCT-15 = tested on: HCT-15
ACHN = tested on: ACHN
COLO 205 = tested on: COLO 205
IGROV-1 = tested on: IGROV-1
HL-60 = tested on: HL-60
SW-620 = tested on: SW-620
OVCAR-4 = tested on: OVCAR-4
SNB-75 = tested on: SNB-75
NCI-H522 = tested on: NCI-H522
SK-MEL-2 = tested on: SK-MEL-2
A498 = tested on: A498
RXF 393 = tested on: RXF 393
T47D = tested on: T47D
SK-MEL-5 = tested on: SK-MEL-5

`O=C(CNc1ccccc1[N+](=O)[O-])Nn1cnc2ccc(S(=O)(=O)Nc3ccccc3[N+](=O)[O-])cc2c1=O` was tested, and the GI50 (RPMI-8226) was > 100 µM (inactive), the GI50 (CCRF-CEM) was > 100 µM (inactive) and the GI50 (PC-3) was > 100 µM (inactive). The GI50 (UACC-257) was > 100 µM (inactive), the GI50 (OVCAR-5) was > 100 µM (inactive) and the GI50 (K562) was > 100 µM (inactive). The GI50 (MOLT-4) was > 100 µM (inactive), the GI50 (MDA-MB-435) was > 100 µM (inactive) and the GI50 (U-251) was > 100 µM (inactive). For the same molecule, the GI50 (SF-295) was > 100 µM (inactive), the GI50 (BT-549) was > 100 µM (inactive) and the GI50 (UACC-62) was > 100 µM (inactive). The GI50 (UO-31) was 73.8 µM (inactive), the GI50 (LOX IMVI) was > 100 µM (inactive) and the GI50 (NCI-H460) was > 100 µM (inactive). The GI50 (Hs-578T) was 22.1 µM (inactive), the GI50 (NCI-H23) was > 100 µM (inactive) and the GI50 (SR) was > 100 µM (inactive). For the same molecule, the GI50 (NCI-H226) was > 100 µM (inactive), the GI50 (NCI/ADR-RES) was > 100 µM (inactive) and the GI50 (HOP-92) was > 100 µM (inactive). The GI50 (TK-10) was > 100 µM (inactive), the GI50 (A549) was > 100 µM (inactive) and the GI50 (HCC 2998) was > 100 µM (inactive). The GI50 (MCF7) was > 100 µM (inactive), the GI50 (OVCAR-8) was > 100 µM (inactive) and the GI50 (HT-29) was > 100 µM (inactive). For the same molecule, the GI50 (SK-MEL-28) was > 100 µM (inactive), the GI50 (SN12C) was > 100 µM (inactive) and the GI50 (CAKI-1) was > 100 µM (inactive). For the same molecule, the GI50 (786-0) was > 100 µM (inactive), the GI50 (SF-268) was > 100 µM (inactive) and the GI50 (Malme-3M) was > 100 µM (inactive). The GI50 (M14) was > 100 µM (inactive), the GI50 (KM12) was > 100 µM (inactive) and the GI50 (OVCAR-3) was > 100 µM (inactive). For the same molecule, the GI50 (HOP-62) was > 100 µM (inactive), the GI50 (DU-145) was > 100 µM (inactive) and the GI50 (SF-539) was > 100 µM (inactive). For the same molecule, the GI50 (MDA-MB-231) was > 100 µM (inactive), the GI50 (SK-OV-3) was > 100 µM (inactive) and the GI50 (SNB-19) was > 100 µM (inactive). For the same molecule, the GI50 (EKVX) was > 100 µM (inactive), the GI50 (HCT-116) was > 100 µM (inactive) and the GI50 (MDA-N) was > 100 µM (inactive). For the same molecule, the GI50 (HCT-15) was over 100 µM, the GI50 (ACHN) was > 100 µM (inactive) and the GI50 (COLO 205) was > 100 µM (inactive). The GI50 (IGROV-1) was 78.9 µM (inactive), the GI50 (HL-60) was > 100 µM (inactive) and the GI50 (SW-620) was > 100 µM (inactive). For the same molecule, the GI50 (OVCAR-4) was > 100 µM (inactive), the GI50 (SNB-75) was > 100 µM (inactive) and the GI50 (NCI-H522) was > 100 µM (inactive). The GI50 (SK-MEL-2) was > 100 µM (inactive).
With `CN(C)CCC=C1c2ccccc2C=Cc2ccccc21` [CYCLOBENZAPRINE HYDROCHLORIDE] the GI50 (RPMI-8226) was 18.3 µM (inactive), the GI50 (PC-3) was 16.6 µM (inactive) and the GI50 (UACC-257) was 14.8 µM (inactive). For the same molecule, the GI50 (OVCAR-5) was 15 µM (inactive), the GI50 (A498) was 15.8 µM (inactive) and the GI50 (K562) was 18.5 µM (inactive). For the same molecule, the GI50 (MOLT-4) was 16.8 µM (inactive), the GI50 (RXF 393) was 14.5 µM (inactive) and the GI50 (MDA-MB-435) was 16.7 µM (inactive). For the same molecule, the GI50 (U-251) was 16.3 µM (inactive), the GI50 (SF-295) was 17.2 µM (inactive) and the GI50 (BT-549) was 17.4 µM (inactive). The GI50 (UACC-62) was 16.6 µM (inactive), the GI50 (UO-31) was 15.8 µM (inactive) and the GI50 (LOX IMVI) was 16.7 µM (inactive). For the same molecule, the GI50 (T47D) was 19.5 µM (inactive), the GI50 (NCI-H460) was 15.4 µM (inactive) and the GI50 (Hs-578T) was 18.8 µM (inactive). For the same molecule, the GI50 (NCI-H23) was 18.7 µM (inactive), the GI50 (SR) was 17.9 µM (inactive) and the GI50 (NCI-H226) was 0.0374 µM (active). The GI50 (NCI/ADR-RES) was 16.3 µM (inactive), the GI50 (HOP-92) was 15.6 µM (inactive) and the GI50 (TK-10) was 16.2 µM (inactive). For the same molecule, the GI50 (A549) was 20 µM (inactive), the GI50 (HCC 2998) was 5.4 µM (inactive) and the GI50 (MCF7) was 16.3 µM (inactive). For the same molecule, the GI50 (OVCAR-8) was 16 µM (inactive), the GI50 (HT-29) was 5.25 µM (inactive) and the GI50 (SK-MEL-28) was 16.1 µM (inactive). The GI50 (SN12C) was 16.9 µM (inactive), the GI50 (CAKI-1) was 17 µM (inactive) and the GI50 (786-0) was 16.1 µM (inactive). The GI50 (SF-268) was 15.8 µM (inactive), the GI50 (Malme-3M) was 16.9 µM (inactive) and the GI50 (M14) was 15.8 µM (inactive). The GI50 (KM12) was 18.5 µM (inactive), the GI50 (OVCAR-3) was 15.5 µM (inactive) and the GI50 (HOP-62) was 16.5 µM (inactive). The GI50 (DU-145) was 18 µM (inactive), the GI50 (MDA-MB-231) was 17.3 µM (inactive) and the GI50 (SK-OV-3) was 16.1 µM (inactive). The GI50 (SNB-19) was 19.8 µM (inactive), the GI50 (EKVX) was 10.9 µM (inactive) and the GI50 (HCT-116) was 15 µM (inactive). For the same molecule, the GI50 (HCT-15) was 17.7 µM, the GI50 (ACHN) was 17.2 µM (inactive) and the GI50 (SK-MEL-5) was 14 µM (inactive). For the same molecule, the GI50 (COLO 205) was 14.4 µM (inactive), the GI50 (IGROV-1) was 16.7 µM (inactive) and the GI50 (SW-620) was 17.1 µM (inactive). For the same molecule, the GI50 (OVCAR-4) was 23.1 µM (inactive), the GI50 (SNB-75) was 14.7 µM (inactive) and the GI50 (NCI-H522) was 17.9 µM (inactive). For the same molecule, the GI50 (SK-MEL-2) was 16.3 µM (inactive).
In the case of `Cc1cc(S(=O)(=O)[N-]/C(=N/S(=O)(=O)c2ccc(Cl)cc2)[n+]2ccc(N(C)C)cc2)c(SCC(=O)O)cc1Cl`, the GI50 (RPMI-8226) is reported as 71.1 µM (inactive), the GI50 (CCRF-CEM) is reported as 45.3 µM (inactive) and the GI50 (PC-3) is reported as 69.5 µM (inactive). The GI50 (UACC-257) was > 100 µM (inactive), the GI50 (OVCAR-5) was 21.5 µM (inactive) and the GI50 (A498) was 45.4 µM (inactive). For the same molecule, the GI50 (K562) was 37.8 µM (inactive), the GI50 (MOLT-4) was 34.7 µM (inactive) and the GI50 (RXF 393) was 59.4 µM (inactive). The GI50 (MDA-MB-435) was > 100 µM (inactive), the GI50 (U-251) was > 100 µM (inactive) and the GI50 (SF-295) was 30.7 µM (inactive). The GI50 (BT-549) was > 100 µM (inactive), the GI50 (UACC-62) was 91.4 µM (inactive) and the GI50 (UO-31) was > 100 µM (inactive). For the same molecule, the GI50 (LOX IMVI) was > 100 µM (inactive), the GI50 (T47D) was > 100 µM (inactive) and the GI50 (NCI-H460) was 42.8 µM (inactive). The GI50 (Hs-578T) was > 100 µM (inactive), the GI50 (NCI-H23) was > 100 µM (inactive) and the GI50 (SR) was 35 µM (inactive). For the same molecule, the GI50 (NCI-H226) was 52.7 µM (inactive), the GI50 (HOP-92) was 24.6 µM (inactive) and the GI50 (TK-10) was 86.5 µM (inactive). For the same molecule, the GI50 (A549) was > 100 µM (inactive), the GI50 (MCF7) was 43.8 µM (inactive) and the GI50 (OVCAR-8) was > 100 µM (inactive). The GI50 (HT-29) was 57.5 µM (inactive), the GI50 (SN12C) was > 100 µM (inactive) and the GI50 (CAKI-1) was > 100 µM (inactive). For the same molecule, the GI50 (786-0) was > 100 µM (inactive), the GI50 (SF-268) was > 100 µM (inactive) and the GI50 (Malme-3M) was 33.2 µM (inactive). For the same molecule, the GI50 (M14) was 25.2 µM (inactive), the GI50 (KM12) was > 100 µM (inactive) and the GI50 (OVCAR-3) was 69.7 µM (inactive). The GI50 (HOP-62) was 17.9 µM (inactive), the GI50 (DU-145) was > 100 µM (inactive) and the GI50 (SF-539) was 35.5 µM (inactive). For the same molecule, the GI50 (MDA-MB-231) was 83.4 µM (inactive), the GI50 (SK-OV-3) was 75 µM (inactive) and the GI50 (SNB-19) was > 100 µM (inactive). For the same molecule, the GI50 (EKVX) was 46.8 µM (inactive), the GI50 (HCT-116) was 26.4 µM (inactive) and the GI50 (HCT-15) was over 100 µM. For the same molecule, the GI50 (ACHN) was > 100 µM (inactive), the GI50 (COLO 205) was > 100 µM (inactive) and the GI50 (HL-60) was > 100 µM (inactive). For the same molecule, the GI50 (SW-620) was 64.1 µM (inactive), the GI50 (OVCAR-4) was 34.8 µM (inactive) and the GI50 (SNB-75) was 20.5 µM (inactive).

— ChEMBL document CHEMBL1201862, “PubChem BioAssay data set” (2004)
